The subject of experiment [1] is MDA-MB-238 human breast cancer, estrogen independent, p53mut/mut. The experiment is described as follows: MTT cytotoxicity assay, MDA-MB-238. Type of experiment: cell-based. The following applies: 72 hours, read-out: TCS50. The source says: (§1) One of the parameters used as the basis for colorimetric assays is the metabolic activity of viable cells. For example, a microtiter assay which uses the tetrazolium salt MTT is now widely used to quantitate cell proliferation and cytotoxicity [Hajdúch M, Mihál V, Minarík J, Fáber E, Safárová M, Weigl E, Antálek P.: Cytotechnology, 1996, 19, 243–245]. For instance, this assay is used in drug screening programs and in chemosensitivity testing. Because tetrazolium salts are cleaved only by metabolically active cells, these assays exclusively detect viable cells. In the case of the MTT assay, yellow soluble tetrazolium salt is reduced to a coloured water-insoluble formazan salt. After it is solubilized, the formazan formed can easily and rapidly be quantified in a conventional ELISA plate reader at 570 nm (maximum absorbancy). The quantity of reduced formazan corresponds to the number of vital cells in the culture. […]
(§2) The cell suspensions that were prepared and diluted according to the particular cell type and the expected target cell density (2,500–30,000 cells per well based on cell growth characteristics) were added by pipette (80 μl) into 96/well microtiter plates. […] Usually, test compounds were evaluated at six 4-fold dilutions. […] The tumour cell survival (TCS) was calculated using the following equitation: TCS=(ODdrug exposed well/mean ODcontrol wells)×100%. […]

The subject of another experiment is A549 lung cancer cells. As to the kind of experiment: Apoptosis morphology by scanning electron microscopy. Particulars: A549, 2 μM, 12 hours, scanning electron microscopy (FIG. 1). It counts as cell-based, human. The source says: To analyse the mechanisms of betulinine-induced cytotoxicity, it is important to distinguish apoptosis from the other major form of cell death, necrosis. Finally, at the tissue level, apoptosis produces little or no inflammation, since shrunken portions of the cell are engulfed by the neighbouring cells, especially macrophages, rather than being released into the extracellular fluid. In contrast, in necrosis, cellular contents are released into the extracellular fluid, and thus have an irritant affect on the nearby cells, causing inflammation. […] Thirdly, at the molecular level, a number of biochemical processes play an important role in the induction of apoptosis. However, the majority of them are not well understood, and they result in activation of proteases and nucleases, which finally destruct key biological macromolecules—proteins and DNA. For the detection of apoptotic versus necrotic modes of cell death, the morphology was assessed by scanning electron microscopy.
A549 cell line was cultured on tissue culture treated glass coverslips in 6-well culture plates with or without 2 μM concentration of I.3 or betulinic acid at 37° C. and 5% CO2 for 12 hours. Following incubation, the coverslips were washed in Hank's buffered salt solution and processed as described below.
Cells were fixed in 2% glutaraldehyde/PBS overnight at 4° C., dried and covered with gold under vacuum. […]

Experiment [2] has as its system CEM human T-lymphoblastic leukemia. The experiment is described as follows: MTT cytotoxicity screening assay, CEM. Type of experiment: cell-based. The source says:
One of the parameters used as the basis for colorimetric assays is the metabolic activity of viable cells. For example, a microtiter assay which uses the tetrazolium salt MTT is now widely used to quantitate cell proliferation and cytotoxicity [Hajdúch M, Mihál V, Minarík J, Fáber E, Safárová M, Weigl E, Antálek P.: Cytotechnology, 1996, 19, 243–245]. For instance, this assay is used in drug screening programs and in chemosensitivity testing. Because tetrazolium salts are cleaved only by metabolically active cells, these assays exclusively detect viable cells. In the case of the MTT assay, yellow soluble tetrazolium salt is reduced to a coloured water-insoluble formazan salt. After it is solubilized, the formazan formed can easily and rapidly be quantified in a conventional ELISA plate reader at 570 nm (maximum absorbancy). The quantity of reduced formazan corresponds to the number of vital cells in the culture.
Human T-lymphoblastic leukaemia cell line CEM was used for routine screening of these compounds. […] The cells were maintained in Nunc/Corning 80 cm^2 plastic tissue culture flasks and cultured in cell culture medium (DMEM with 5 g/l glucose, 2 mM glutamine, 100 U/ml penicillin, 100 μg/ml streptomycin, 10% foetal calf serum and sodium bicarbonate). Individual compounds were dissolved in 10% diiethylsulfoxide/saline, pH 8.0.
The cell suspensions that were prepared and diluted according to the particular cell type and the expected target cell density (2,500–30,000 cells per well based on cell growth characteristics) were added by pipette (80 μl) into 96/well microtiter plates. Inoculates were allowed a pre-incubation period of 24 hours at 37° C. and 5% CO2 for stabilisation. Four-fold dilutions of the intended test concentration were added at time zero in 20 μl aliquots to the microtiter plate wells. Usually, test compounds were evaluated at six 4-fold dilutions. In routine testing, the highest well concentration was 250 μM, but it may differ, depending on the agent. All drug concentrations were examined in duplicate. Incubations of cells with the test compounds lasted for 72 hours at 37° C., in 5% CO2 atmosphere and 100% humidity. At the end of the incubation period, the cells were assayed by using the MTT assay. […] After this incubation period, formazan was solubilized by the addition of 100 μl/well of 10% SDS in water (pH=5.5) followed by further incubation at 37° C. overnight The optical density (OD) was measured at 540 nm with the Labsystem iEMS Reader MF(UK). The tumour cell survival (TCS) was calculated using the following equitation: TCS=(ODdrug exposed well/mean ODcontrol wells)×100%. The TCS50 value, the drug concentration lethal to 50% of the tumour cells, was calculated from the obtained dose response curves. […]
Background: Tetrazolium assays rely on reduction of a dye to a coloured formazan, in cell work by metabolically active cells.

Experiment [3] concerns K562-GEM human promyelocytic leukemia, gemcitabin resistant. As to the kind of experiment: MTT cytotoxicity assay, K562-GEM. It counts as cell-based. The following applies: 72 hours, read-out: TCS50.
From the text: as §1, §2

Experiment [4] has as its system Caco-2 human colon cancer. As to the kind of experiment: MTT cytotoxicity assay, Caco-2. Type of experiment: cell-based. Particulars: 72 hours, read-out: TCS50.
From the text: as §1, §2

In a further experiment the test system is H3 histone (Lys9). As to the kind of experiment: Histone acetylation, Western blot in CEM cells. Type of experiment: cell-based, human. On the procedure:
CEM cells were cultured in Dulbeco's modified essential medium with 4.5 g dextrose/l, 10% of foetal calf serum, 2 mM glutamine, 100 U/ml penicillin and 100 μg/ml streptomycin with/without the indicated concentrations of HDAC inhibitor TSA or I.3. At selected time points, cells were harvested, washed in ice cold Hank's balanced salt solution and solubilized on ice using SDS-PAGE sample buffer containing protease and phosphatase inhibitors (10 μg/ml of leupeptin, 10 μg/ml of aprotinin, 10 μg/ml of soybean trypsin inhibitor, 100 μmol of benzamide, 1 mM of sodium vanadate, 1 mM of NaF, 1 mM of phenylphosphate) and boiled immediately.
Total cellular proteins (100 μg/well) were separated on SDS-PAGE electrophoresis, blotted on polyvinyldifluoride membranes and acetylated histone was detected using a anti-acetyl(Lys9)-histone H3 rabbit polyclonal antibody (Cell Signalling Technology, Beverly, Mass.; Cat# 9671L) and visualized by chemilumniuscence (ECL-Western Blotting System, Amersham). Details of the Western blot technique are described in Ausubel, F. M., Brent, R, Kingston, R. E., Moore, D. D., Seidman, J. G., Smith, J. A., Struhl, K. (Eds): Short Protocols in Molecular. Biology, 2nd edition, John Wiley & Sons, New York, Chichester, Brisbane, Toronto, Singapore, 1992, page 10–33–10–35.

The subject of experiment [5] is CEM-VCR bulk human T-lymphoblastic leukemia, vincristin resistant. The experiment is described as follows: MTT cytotoxicity assay, CEM-VCR bulk. Type of experiment: cell-based. The following applies: 72 hours, read-out: TCS50.
From the text: as §1, §2

Experiment [6] deals with NIH3T3 mouse immortalised fibroblasts. As to the kind of experiment: MTT cytotoxicity assay, NIH3T3. Type of experiment: cell-based. Particulars: 72 hours, read-out: TCS50.
From the text: as §1, §2

For experiment [7], the system named is HepG2 human hepatocellular carcinoma. The experiment is described as follows: MTT cytotoxicity assay, HepG2. It counts as cell-based. Particulars: 72 hours, read-out: TCS50.
From the text: as §1, §2

The subject of experiment [8] is CEM-VCR 1/F3 human T-lymphoblastic leukemia, vincristin resistant. As to the kind of experiment: MTT cytotoxicity assay, CEM-VCR 1/F3. It counts as cell-based. Particulars: 72 hours, read-out: TCS50.
From the text: as §1, §2

Like-named read-outs stand apart in the source and are kept apart here.

For the molecule `CC(=O)OC[C@@]1(C(=O)O)CC[C@]2(C)[C@H](CC[C@@H]3[C@@]4(C)CC[C@H](OC(C)=O)C(C)(C)[C@@H]4CC[C@]32C)C1=O` [I.3, 3β,28-diacetoxy-18-oxo-19,20,21,29,30-pentanorlupan-22-oic acid], the IC50 in experiment [1] was determined as 1.4 µM; in experiment [2] (CEM cells, as stated in the histone acetylation study, read-out: IC50), 2 µM; in [2] (CEM, MTT assay, 72 hours, read-out: TCS50), 1 µM; in experiment [3] it was 0.9 µM; in experiment [4] it was 3 µM; in [5], 2.5 µM. The figures for the IC50 in experiment [6], in experiment [7] and in [8] were 7.2 µM, 1.7 µM and 3.3 µM, respectively. For the same molecule, the “morphologic markers of apoptosis” value in the experiment with A549 lung cancer cells is “cytoplasmatic blebbing, cellular fragmentation and formation of apoptotic bodies”. Besides, the “time points showing histone acetylation” value in the experiment with H3 histone (Lys9) (2 μM (IC50)) lay in the range of 45 to 120 min. In addition, in the experiment on H3 histone (Lys9) (20 μM (10×IC50)), the “time to appearance of acetylated histone” value amounted to 30 min. Also, the “acetylation of H3 histone in Lys9 position” value with H3 histone (Lys9) (Western blot (FIG. 5)) is listed as “rapidly acetylated”.

The values above are taken from US7041701B2, “Triterpenoid derivatives” (Univerzita Palackeho V Olomouci, priority 2000, dated 2006).
